Active and inactive are the calls of the source. The calls are words filed in the database; no cut-off is given here.
What was measured:
[1] = species: Homo sapiens; assay: Inhibition of LPS-induced TNF-alpha production in human whole blood.; type: functional, organism-based
[2] = molecular target: 3',5'-cyclic-AMP phosphodiesterase 4A (Homo sapiens, UniProt P27815); assay: Inhibitory activity against human PDE4A expressed isoform using construct representing the common region of spliced variants as GST-fusion protein in Sf9 cells.
[3] = system: Ovis aries; assay: In vivo inhibition of ovalbumin-induced bronchoconstriction in sheep early phase at 2.0 mg/kg ip dose 4 hr prior to challenge; type: functional; conditions: route intraperitoneal
[4] = Oral bioavailability (dose 20 mg/kg p.o.); type: ADME, organism-based; conditions: rat, in vivo
[5] = system: Mustela putorius furo; assay: Emesis in ferrets at 30 mg/kg oral dose; type: functional
[6] = Cmax in ferrets after 30 mg/kg oral dose; type: ADME, organism-based, Mustela putorius furo; design: dose 30 mg/kg, route oral; conditions: ferret, in vivo
[7] = Half life period after intravenous administration at 5 mg/kg in rat; type: ADME, organism-based; design: dose 5 mg/kg, route intravenous; conditions: in vivo
[8] = Cmax in rats after 20 mg/kg oral dose; type: ADME, organism-based; design: dose 20 mg/kg, route oral; conditions: rat, in vivo
[9] = system: Cavia porcellus; assay: In vivo inhibition of ovalbumin-induced bronchoconstriction in conscious guinea pig at 1 mg/kg ip dose 4 hr prior 4 hr to challenge; type: functional; conditions: route intraperitoneal
[10] = system: Ovis aries; assay: In vivo inhibition of ovalbumin-induced bronchoconstriction in sheep late phase at 2.0 mg/kg ip dose 2 hr prior to challenge; type: functional; conditions: route intraperitoneal
[11] = system: Cavia porcellus; assay: In vivo inhibition of ovalbumin-induced bronchoconstriction in conscious guinea pig at 1 mg/kg ip dose 30 hr prior to challenge; type: functional; conditions: route intraperitoneal
[12] = system: Ovis aries; assay: In vivo inhibition of ovalbumin-induced bronchoconstriction in sheep early phase at 20 mg/kg ip dose 30 hr prior to challenge; type: functional; conditions: route intraperitoneal
[13] = system: Ovis aries; assay: In vivo inhibition of ovalbumin-induced bronchoconstriction in sheep late phase at 20 mg/kg ip dose 2 hr prior to challenge; type: functional; conditions: route intraperitoneal

Chain of 3',5'-cyclic-AMP phosphodiesterase 4A (P27815 whole entry, looked up, stated change not applied, the tested form may be a part, canonical isoform): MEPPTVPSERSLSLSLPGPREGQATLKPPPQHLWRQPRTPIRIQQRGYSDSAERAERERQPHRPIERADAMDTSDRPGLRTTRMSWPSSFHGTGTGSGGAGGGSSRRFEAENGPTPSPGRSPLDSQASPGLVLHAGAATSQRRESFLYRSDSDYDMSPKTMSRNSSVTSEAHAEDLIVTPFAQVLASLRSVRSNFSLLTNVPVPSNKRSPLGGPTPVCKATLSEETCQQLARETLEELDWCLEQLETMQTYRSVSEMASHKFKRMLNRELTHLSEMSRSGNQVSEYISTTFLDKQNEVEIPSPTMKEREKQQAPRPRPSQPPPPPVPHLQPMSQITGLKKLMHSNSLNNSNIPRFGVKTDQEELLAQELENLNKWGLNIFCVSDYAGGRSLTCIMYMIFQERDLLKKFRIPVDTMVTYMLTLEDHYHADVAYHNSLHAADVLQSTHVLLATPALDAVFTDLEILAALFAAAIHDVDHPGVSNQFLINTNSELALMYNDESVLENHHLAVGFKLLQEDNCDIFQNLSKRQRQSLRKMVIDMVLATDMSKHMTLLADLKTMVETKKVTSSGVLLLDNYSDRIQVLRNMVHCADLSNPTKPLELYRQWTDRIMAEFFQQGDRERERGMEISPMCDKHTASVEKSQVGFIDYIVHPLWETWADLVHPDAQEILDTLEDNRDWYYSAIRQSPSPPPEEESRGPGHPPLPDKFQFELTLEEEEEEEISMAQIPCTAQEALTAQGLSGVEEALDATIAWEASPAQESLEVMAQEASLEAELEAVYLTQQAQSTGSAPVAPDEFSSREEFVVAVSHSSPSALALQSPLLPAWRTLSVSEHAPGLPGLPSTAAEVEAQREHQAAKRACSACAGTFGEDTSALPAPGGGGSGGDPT

SMILES | IC50 ([1]; Homo sapiens, Blood) [µM] | IC50 [2] [µM] | other results
CC(C)Nc1ccc(C(Cc2cc[n+]([O-])cc2)c2ccc(OC(F)F)c(OC(F)F)c2)cn1 (stereo not given) | 0.8 | 0.012 | –
CC(C)(Nc1ccc(C(Cc2cc[n+]([O-])cc2)c2ccc(OC(F)F)c(OC(F)F)c2)cn1)c1ccccc1 (stereo in doubt; 3n) | – | 0.0016 | IC50 [1]: 0.2 µM
O=C(Cc1ccccc1)Nc1ccc(C(Cc2cc[n+]([O-])cc2)c2ccc(OC(F)F)c(OC(F)F)c2)cn1 (stereo not given) | 3.8 | 0.0078 | –
CN(CCc1ccccc1)c1ccc(C(Cc2cc[n+]([O-])cc2)c2ccc(OC(F)F)c(OC(F)F)c2)cn1 (stereo not given) | 0.8 | 0.0058 | –
CC(C)(C)N(Cc1ccccc1)c1ccc(C(Cc2cc[n+]([O-])cc2)c2ccc(OC(F)F)c(OC(F)F)c2)cn1 (stereo not given) | 17 | 0.018 | –
CN(c1ccccc1)c1ccc(C(Cc2cc[n+]([O-])cc2)c2ccc(OC(F)F)c(OC(F)F)c2)cn1 (stereo not given) | 2.1 | 0.0008 | –
CCN(Cc1ccccc1)c1ccc(C(Cc2cc[n+]([O-])cc2)c2ccc(OC(F)F)c(OC(F)F)c2)cn1 (stereo not given) | 0.4 | 0.0023 | –
[O-][n+]1ccc(CC(c2ccc(C(O)(C(F)(F)F)C(F)(F)F)cc2)c2ccc(OC(F)F)c(OC(F)F)c2)cc1 (stereo not given) | – | 0.0042 | Efficacy [3]: 85%; bioavailability [4]: 70%; Emesis_ED [5]: inactive; Cmax [6]: 16 µM; half-life [7]: > 24 h; Cmax [8]: 3.5 µM; Efficacy [9]: 58%; Efficacy [10]: 95%
Cc1c[n+]([O-])ccc1CC(c1ccc(C(O)(C(F)(F)F)C(F)(F)F)cc1)c1ccc(OC(F)F)c(OC(F)F)c1 (stereo not given) | 0.3 | 0.0013 | –
C[C@@H](Nc1ccc(C(Cc2cc[n+]([O-])cc2)c2ccc(OC(F)F)c(OC(F)F)c2)cn1)c1ccccc1 (stereo not given in full) | 0.9 | 0.0017 | –
CN(Cc1ccccc1)c1ccc(C(Cc2cc[n+]([O-])cc2)c2ccc(OC(F)F)c(OC(F)F)c2)cn1 (stereo not given) | 0.3 | 0.0012 | –
CN(Cc1ccc2ccccc2c1)c1ccc(C(Cc2cc[n+]([O-])cc2)c2ccc(OC(F)F)c(OC(F)F)c2)cn1 (stereo not given) | 0.3 | 0.0015 | –
O=S(=O)(Nc1ccc(C(Cc2cc[n+]([O-])cc2)c2ccc(OC(F)F)c(OC(F)F)c2)cn1)c1ccccc1 (stereo not given) | 34 | 0.016 | –
CCNC(=O)Nc1ccc(C(Cc2cc[n+]([O-])cc2)c2ccc(OC(F)F)c(OC(F)F)c2)cn1 (stereo not given) | 1.7 | 0.0083 | –
CC(=O)Nc1ccc(C(Cc2cc[n+]([O-])cc2)c2ccc(OC(F)F)c(OC(F)F)c2)cn1 (stereo not given) | 1.8 | 0.033 | –
CC(C)(Nc1ccc(C(Cc2cc[n+]([O-])cc2)c2ccc(OC(F)F)c(OC(F)F)c2)cn1)c1ccccc1 (single isomer, unassigned; (-)) | – | 0.0008 | Efficacy [11]: 54%; bioavailability [4]: 100%; IC50 [1]: 0.1 µM; Efficacy [12]: 64%; half-life [7]: 2 h; Cmax [8]: 2.4 µM; Efficacy [13]: 97%
Nc1ccc(C(Cc2cc[n+]([O-])cc2)c2ccc(OC(F)F)c(OC(F)F)c2)cn1 (stereo not given) | 1.6 | 0.031 | –
Cc1ccc(CCNc2ccc(C(Cc3cc[n+]([O-])cc3)c3ccc(OC(F)F)c(OC(F)F)c3)cn2)cc1 (stereo not given) | 0.8 | 0.0023 | –
CCN(c1ccc(C(Cc2cc[n+]([O-])cc2)c2ccc(OC(F)F)c(OC(F)F)c2)cn1)[C@H](C)c1ccccc1 (stereo not given in full) | 0.2 | 0.0006 | –
CC(C)(Nc1ccc(C(Cc2cc[n+]([O-])cc2)c2ccc(OC(F)F)c(OC(F)F)c2)cn1)c1ccccc1 (stereo in doubt; (+)-3n) | – | 0.023 | IC50 [1]: 10 µM
[O-][n+]1ccc(CC(c2ccc(N3CCCC3)nc2)c2ccc(OC(F)F)c(OC(F)F)c2)cc1 (stereo not given) | – | 0.031 | –
[O-][n+]1ccc(CC(c2ccc(NCc3ccccc3)nc2)c2ccc(OC(F)F)c(OC(F)F)c2)cc1 (stereo not given) | 0.4 | 0.0012 | –
CC(C)N(Cc1ccccc1)c1ccc(C(Cc2cc[n+]([O-])cc2)c2ccc(OC(F)F)c(OC(F)F)c2)cn1 (stereo not given) | 1 | 0.0093 | –
C[C@H](c1ccccc1)N(C)c1ccc(C(Cc2cc[n+]([O-])cc2)c2ccc(OC(F)F)c(OC(F)F)c2)cn1 (stereo not given in full) | 0.7 | 0.0003 | –

Source: ChEMBL document CHEMBL1136601, “Substituted aminopyridines as potent and selective phosphodiesterase-4 inhibitors” (Bioorg Med Chem Lett, 2003)
